32 compounds from patent US20100105651A1, “ANTAGONISTS OF SNS SODIUM CHANNELS” (priority 2005, published 2010) can be followed below.

A word on the IC50: it is the concentration needed to halve the response being measured.

Counter-ions that a name gives are not always drawn.

The target in this assay is T1, human NaV1.8 (hNaV1.8) ion channel (Homo sapiens, UniProt Q9Y5Y9).
T1 construct: expressed in transfected cells
T1 sequence (Q9Y5Y9 whole entry): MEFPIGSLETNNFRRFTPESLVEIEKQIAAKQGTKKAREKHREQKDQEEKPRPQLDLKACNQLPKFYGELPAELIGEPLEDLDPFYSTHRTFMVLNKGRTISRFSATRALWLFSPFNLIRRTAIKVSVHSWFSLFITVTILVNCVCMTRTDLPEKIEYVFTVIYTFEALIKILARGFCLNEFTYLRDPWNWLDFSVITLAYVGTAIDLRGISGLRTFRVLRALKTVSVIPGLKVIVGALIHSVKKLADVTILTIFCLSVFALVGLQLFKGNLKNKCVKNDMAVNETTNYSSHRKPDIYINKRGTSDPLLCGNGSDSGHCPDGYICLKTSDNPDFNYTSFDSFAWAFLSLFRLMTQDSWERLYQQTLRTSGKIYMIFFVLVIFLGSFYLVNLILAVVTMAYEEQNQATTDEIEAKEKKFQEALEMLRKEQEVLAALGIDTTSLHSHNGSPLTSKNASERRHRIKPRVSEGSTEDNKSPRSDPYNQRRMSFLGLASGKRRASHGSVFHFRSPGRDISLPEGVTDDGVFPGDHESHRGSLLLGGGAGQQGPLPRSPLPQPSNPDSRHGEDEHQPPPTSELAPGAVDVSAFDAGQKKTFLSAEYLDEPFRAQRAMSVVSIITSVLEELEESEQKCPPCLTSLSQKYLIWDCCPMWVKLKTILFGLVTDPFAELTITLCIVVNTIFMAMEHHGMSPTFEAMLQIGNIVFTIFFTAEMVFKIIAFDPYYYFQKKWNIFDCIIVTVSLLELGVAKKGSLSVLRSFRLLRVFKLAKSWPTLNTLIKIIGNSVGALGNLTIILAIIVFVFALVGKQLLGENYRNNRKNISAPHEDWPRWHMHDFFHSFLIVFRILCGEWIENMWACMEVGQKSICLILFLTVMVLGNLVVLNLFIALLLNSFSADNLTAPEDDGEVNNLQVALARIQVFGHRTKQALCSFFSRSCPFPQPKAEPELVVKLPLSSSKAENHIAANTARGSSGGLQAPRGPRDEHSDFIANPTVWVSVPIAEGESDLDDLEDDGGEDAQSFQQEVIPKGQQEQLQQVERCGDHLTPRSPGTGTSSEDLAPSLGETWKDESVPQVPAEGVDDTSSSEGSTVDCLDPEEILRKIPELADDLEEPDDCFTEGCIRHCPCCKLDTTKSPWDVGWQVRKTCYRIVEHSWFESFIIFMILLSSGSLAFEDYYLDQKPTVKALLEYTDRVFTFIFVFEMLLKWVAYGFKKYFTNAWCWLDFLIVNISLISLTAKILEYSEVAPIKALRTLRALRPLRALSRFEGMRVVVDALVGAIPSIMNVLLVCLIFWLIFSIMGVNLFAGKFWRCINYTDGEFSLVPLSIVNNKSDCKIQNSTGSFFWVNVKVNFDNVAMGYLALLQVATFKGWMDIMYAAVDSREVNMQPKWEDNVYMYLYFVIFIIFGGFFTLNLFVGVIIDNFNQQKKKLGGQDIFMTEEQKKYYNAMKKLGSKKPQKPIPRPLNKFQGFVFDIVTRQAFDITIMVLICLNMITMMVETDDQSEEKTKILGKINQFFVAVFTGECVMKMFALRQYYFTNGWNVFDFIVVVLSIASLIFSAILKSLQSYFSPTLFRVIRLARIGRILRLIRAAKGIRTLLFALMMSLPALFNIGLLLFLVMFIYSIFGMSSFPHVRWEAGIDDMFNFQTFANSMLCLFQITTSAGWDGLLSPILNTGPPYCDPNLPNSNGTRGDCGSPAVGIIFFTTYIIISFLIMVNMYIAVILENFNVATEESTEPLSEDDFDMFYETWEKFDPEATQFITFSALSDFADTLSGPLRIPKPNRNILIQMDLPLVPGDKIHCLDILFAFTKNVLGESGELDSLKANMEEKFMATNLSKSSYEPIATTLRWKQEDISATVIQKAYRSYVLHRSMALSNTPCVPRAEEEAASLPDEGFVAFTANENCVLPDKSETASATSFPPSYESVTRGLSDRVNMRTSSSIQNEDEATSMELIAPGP
Description: Inhibition of Human NaV1.8 stably expressed in SH-SY-5Y cells (membrane potential dye fluorescence assay). Format: cell-based. Conditions: SH-SY-5Y cells stably expressing hNaV1.8; FLIPR membrane potential dye; 10 μM pyrethroid, 250 nM TTX; test range 100 μM-0.05 μM; read-out: hNav1.8 IC50.
Regarding `CC(NC(=O)N1CC(NC2Cc3ccccc3C2)C1)c1ccc(C(F)(F)F)cc1` (centres unmarked) [Example 3, 3-(Indan-2-ylamino)-azetidine-1-carboxylic acid [1-(4-trifluoromethyl-phenyl)-ethyl]-amide], the IC50 turned out to be 2.98 µM. The result for `CC(c1ccc(F)cc1)N(C)C1CN(C(=O)Nc2cccc(Oc3ccccc3)c2)C1` (centres unmarked) [Example 109, 3-{[1-(4-Fluoro-phenyl)-ethyl]-methyl-amino}-azetidine-1-carboxylic acid (3-phenoxy-phenyl)-amide] reads 0.47 µM; that for `CCCCOc1ccc(NC(=O)N2CC(NC(C)c3ccccc3C)C2)cc1` (centres unmarked) [Example 65, 3-(1-o-Tolyl-ethylamino)-azetidine-1-carboxylic acid (4-butoxy-phenyl)-amide], 1.42 µM. The result for `O=C(Nc1ccc(Oc2ccc(F)cc2)nc1)N1CC(NC2CCc3cc(F)ccc32)C1` (centres unmarked) [Example 135, 3-(5-Fluoro-indan-1-ylamino)-azetidine-1-carboxylic acid [6-(4-fluoro-phenoxy)-pyridin-3-yl]-amide methanesulfonate salt] reads 2.17 µM; that for `CC(NC(=O)N1CC(NC2CCc3cc(F)ccc3C2)C1)c1ccc(C(F)(F)F)cc1` (centres unmarked) [Example 5, 3-(6-Fluoro-1,2,3,4-tetrahydro-naphthalen-2-ylamino)-azetidine-1-carboxylic acid [1-(4-trifluoromethyl-phenyl)-ethyl]-amide], 1.74 µM. For `CC(NC1CN(C(=O)Nc2ccc(OC(F)(F)F)cc2)C1)c1ccc(F)cc1` (centres unmarked) [Example 72, 3-[1-(4-Fluoro-phenyl)-ethylamino]-azetidine-1-carboxylic acid (4-trifluoromethoxy-phenyl)-amide] the value was 3.21 µM; for `CC(c1ccccc1Cl)N(C)C1CN(C(=O)Nc2cccc(C(F)(F)F)c2)C1` (centres unmarked) [Example 97, 3-{[1-(2-Chloro-phenyl)-ethyl]-methyl-amino}-azetidine-1-carboxylic acid (3-trifluoromethyl-phenyl)-amide], 3.64 µM; for `Cc1ccccc1C(C)NC1CN(C(=O)Nc2cccc(C(F)(F)F)c2)C1` (centres unmarked) [Example 75, 3-(1-o-Tolyl-ethylamino)-azetidine-1-carboxylic acid (3-trifluoromethyl-phenyl)-amide], 2.26 µM. As to `CC(c1ccc(F)cc1Cl)N(C)C1CN(C(=O)Nc2cccc(Oc3ccccc3)c2)C1` (centres unmarked) [Example 100, 3-{[1-(2-Chloro-4-fluoro-phenyl)-ethyl]-methyl-amino}-azetidine-1-carboxylic acid (3-phenoxy-phenyl)-amide], the IC50 is 1.21 µM. The result for `CC(NC1CN(C(=O)Nc2cccc(Oc3ccccc3)c2)C1)c1ccc(F)cc1` (centres unmarked) [Example 103, 3-[1-(4-Fluoro-phenyl)-ethylamino]-azetidine-1-carboxylic acid (3-phenoxy-phenyl)-amide] reads 0.73 µM; that for `CC(NC1CN(C(=O)Nc2cccc(C(F)(F)F)c2)C1)c1ccccc1Cl` (centres unmarked) [Example 74, 3-[1-(2-Chloro-phenyl)-ethylamino]-azetidine-1-carboxylic acid (3-trifluoromethyl-phenyl)-amide], 2.86 µM. As for `CC(NC1CN(C(=O)Nc2ccc(C(F)(F)F)cc2)C1)c1ccccc1Cl` (centres unmarked) [Example 124, 3-[1-(2-Chloro-phenyl)-ethylamino]-azetidine-1-carboxylic acid (4-trifluoromethyl-phenyl)-amide], the IC50 is 2.48 µM. The result for `COc1ccc2c(c1)CCC2NC1CN(C(=O)Nc2ccc(Oc3cccc(F)c3)cc2)C1` (centres unmarked) [Example 134, 3-(5-Methoxy-indan-1-ylamino)-azetidine-1-carboxylic acid [4-(3-fluoro-phenoxy)-pheny]-amide] reads 0.17 µM; that for `CC(NC1CN(C(=O)c2ccc(Oc3ccccc3)cc2)C1)c1ccccc1` (centres unmarked) [Example 44, (4-Phenoxy-phenyl)-[3-(1-phenyl-ethylamino)-azetidin-1-yl]-methanone], 0.73 µM; that for `CC(c1ccc(F)cc1Cl)N(C)C1CN(C(=O)Nc2ccc(C(F)(F)F)cc2)C1` (centres unmarked) [Example 59, 3-{[1-(2-Chloro-4-fluoro-phenyl)-ethyl]-methyl-amino}-azetidine-1-carboxylic acid (4-trifluoromethyl-phenyl)-amide], 1.87 µM. With `O=C(c1ccc(Oc2ccc(F)cc2)cc1)N1CC(NC2CCc3cc(F)ccc32)C1` (centres unmarked) [Example 43, [3-(5-Fluoro-indan-1-ylamino)-azetidin-1-yl]-[4-(4-fluoro-phenoxy)-phenyl]-methanone], the IC50 was 0.24 µM. In the case of `CC(c1ccc(F)cc1Cl)N(C)C1CN(C(=O)Nc2ccc(Oc3ccccc3)cc2)C1` (centres unmarked) [Example 60, 3-{[1-(2-Chloro-4-fluoro-phenyl)-ethyl]-methyl-amino}-azetidine-1-carboxylic acid (4-phenoxy-phenyl)-amide], the IC50 is 0.57 µM. For `O=C(Nc1ccc(Oc2ccccc2F)cc1)N1CC(NC2CCc3cc(Cl)ccc32)C1` (centres unmarked) [Example 133, 3-(5-Chloro-indan-1-ylamino)-azetidine-1-carboxylic acid [4-(2-fluoro-phenoxy)-phenyl]-amide] the value was 1.55 µM; for `O=C(Nc1ccc(Oc2ccc(F)cc2)cc1)N1CC(NC2CCc3cc(Cl)ccc32)C1` (centres unmarked) [Example 138, 3-(5-Chloro-indan-1-ylamino)-azetidine-1-carboxylic acid [4-(4-fluoro-phenoxy)-phenyl]-amide methanesulfonate salt], 0.43 µM; for `CC(c1ccc(OC(F)(F)F)cc1)N(C)C1CN(C(=O)Nc2ccc(Oc3ccccc3)cc2)C1` (centres unmarked) [Example 80, 3-{Methyl-[1-(4-trifluoromethoxy-phenyl)-ethyl]-amino}-azetidine-1-carboxylic acid (4-phenoxy-phenyl)-amide], 1.22 µM. For `Cc1cc(F)ccc1C(C)NC1CN(C(=O)Nc2ccc(Oc3ccc(F)cc3)cc2)C1` (centres unmarked) [Example 119, 3-[1-(4-Fluoro-2-methyl-phenyl)-ethylamino]-azetidine-1-carboxylic acid [4-(4-fluoro-phenoxy)-phenyl]-amide] the value was 0.46 µM; for `O=C(Cc1ccc(Oc2ccc(F)cc2)cc1)N1CC(NC2Cc3ccc(F)cc3C2)C1` (centres unmarked) [Example 50, 1-[3-(5-Fluoro-indan-2-ylamino)-azetidin-1-yl]-2-[4-(4-fluoro-phenoxy)-phenyl]-ethanone], 0.78 µM; for `Cc1ccccc1C(C)N(C)C1CN(C(=O)Nc2cccc(Oc3ccccc3)c2)C1` (centres unmarked) [Example 107, 3-[Methyl-(1-o-tolyl-ethyl)-amino]-azetidine-1-carboxylic acid (3-phenoxy-phenyl)-amide], 0.51 µM. The result for `CN(C1CN(C(=O)Nc2cccc(C(F)(F)F)c2)C1)C1CCc2cc(F)ccc21` (centres unmarked) [Example 40, 3[(5-Fluoro-indan-1-yl)-methyl-amino]-azetidine-1-carboxylic acid (3-trifluoromethyl-phenyl)-amide] reads 2.3 µM; that for `CC(c1ccc(F)cc1Cl)N(C(=O)C(F)(F)F)C1CN(C(=O)Nc2ccc(Oc3ccccc3)cc2)C1` (centres unmarked) [Example 92, 3-[[1-(2-Chloro-4-fluoro-phenyl)-ethyl]-(2,2,2-trifluoro-acetyl)-amino]-azetidine-1-carboxylic acid (4-phenoxy-phenyl)-amide], 15.1 µM. With `CC(c1ccc(F)cc1)N(C)C1CN(C(=O)Nc2cccc(C(F)(F)F)c2F)C1` (centres unmarked) [Example 84, 3-{[1-(4-Fluoro-phenyl)-ethyl]-methyl-amino}-azetidine-1-carboxylic acid (2-fluoro-3-trifluoromethyl-phenyl)-amide], the IC50 came to 5.8 µM. The result for `CC(NC(=O)N1CC(NC2CCc3ccccc3C2)C1)c1ccc(C(F)(F)F)cc1` (centres unmarked) [Example 4, 3-(1,2,3,4-Tetrahydro-naphthalen-2-ylamino)-azetidine-1-carboxylic acid [1-(4-trifluoromethyl-phenyl)-ethyl]-amide] reads 3.32 µM; that for `CCCCOc1ccc(NC(=O)N2CC(N3CCc4cccc(OC)c4C3)C2)cc1` [Example 76, 3-(8-Methoxy-3,4-dihydro-1H-isoquinolin-2-yl)-azetidine-1-carboxylic acid (4-butoxy-phenyl)-amide], 1.41 µM. For `CCCCOc1ccc(NC(=O)N2CC(NC(C)c3ccc(F)cc3)C2)cc1` (centres unmarked) [Example 66, 3-[1-(4-Fluoro-phenyl)-ethylamino]-azetidine-1-carboxylic acid (4-butoxy-phenyl)-amide] the value was 2.27 µM; for `O=C(Nc1ccc(Oc2ccccc2)cc1)N1CC(NC2CCc3ccccc32)C1` (centres unmarked) [Example 30, 3-(Indan-1-ylamino)-azetidine-1-carboxylic acid (4-phenoxy-phenyl)-amide], 0.26 µM; for `Cc1ccccc1C(C)NC1CN(C(=O)Nc2ccc(Oc3ccccc3)cc2)C1` (centres unmarked) [Example 61, 3-(1-o-Tolyl-ethylamino)-azetidine-1-carboxylic acid (4-phenoxy-phenyl)-amide], 0.75 µM. The result for `Cc1ccccc1C(C)N(C)C1CN(C(=O)Nc2ccc(Oc3ccccc3)cc2)C1` (centres unmarked) [Example 62, 3-[Methyl-(1-o-tolyl-ethyl)-amino]-azetidine-1-carboxylic acid (4-phenoxy-phenyl)-amide] reads 0.72 µM.
